Source: the supplement of paper PMC10307832

Tests used:
Assay in all cases: relative viability (nuclei count vs DMSO), 5 days (fraction); higher = more cells survive
201T = tested on: 201T
Procedure, shortened: (§1)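 Lung cancer cell lines were seeded in 1536-well plates and dosed by pin tool the next day, with either a single drug or a fixed anchor-drug dose combined with five library-drug doses (not always all listed) spaced in √10 steps. Five days later, one step fixed the cells and stained their nuclei (final 0.05% Triton X-100, 1% formaldehyde, 1 ug/ml Hoechst), and nuclei were counted on 4× images. Relative viability is the nuclei count in treated wells divided by the count in vehicle wells, and each value is the median of duplicate plates.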

A-427 = tested on: A-427
Procedure, shortened: as §1

ABC-1 = tested on: ABC-1
Procedure, shortened: as §1

BEN = tested on: BEN
Procedure, shortened: as §1

CAL-12T = tested on: CAL-12T
Procedure, shortened: as §1

H3255 = tested on: H3255
Procedure, shortened: as §1

LC-2-ad = tested on: LC-2-ad
Procedure, shortened: as §1

LCLC-97TM1 = tested on: LCLC-97TM1
Procedure, shortened: as §1

NCI-H1650 = tested on: NCI-H1650
Procedure, shortened: as §1

NCI-H1651 = tested on: NCI-H1651
Procedure, shortened: as §1

NCI-H1915 = tested on: NCI-H1915
Procedure, shortened: as §1

NCI-H1944 = tested on: NCI-H1944
Procedure, shortened: as §1

NCI-H2023 = tested on: NCI-H2023
Procedure, shortened: as §1

NCI-H2087 = tested on: NCI-H2087
Procedure, shortened: as §1

NCI-H441 = tested on: NCI-H441
Procedure, shortened: as §1

NCI-H460 = tested on: NCI-H460
Procedure, shortened: as §1

NCI-H520 = tested on: NCI-H520
Procedure, shortened: as §1

NCI-H596 = tested on: NCI-H596
Procedure, shortened: as §1

NCI-H650 = tested on: NCI-H650
Procedure, shortened: as §1

NCI-H661 = tested on: NCI-H661
Procedure, shortened: as §1

NCI-H727 = tested on: NCI-H727
Procedure, shortened: as §1

PC-3 [JPC-3] = tested on: PC-3 [JPC-3]
Procedure, shortened: as §1

`COc1nc(C)cnc1NS(=O)(=O)c1cccnc1-c1ccc(-c2nnco2)cc1` [Zibotentan] + O=C(c1cc(Cc2n[nH]c(=O)c3ccccc23)ccc1F)N1CCN(C(=O)C2CC2)CC1 [Olaparib] (partner 8 µM) gave a relative viability (201T; first compound 0.08 µM) of 0.819, a relative viability (201T; first compound 0.253 µM) of 0.828 and a relative viability (201T; first compound 0.8 µM) of 0.846. It also gave a relative viability (201T; first compound 2.53 µM) of 0.876, a relative viability (A-427; first compound 0.08 µM) of 0.755 and a relative viability (A-427; first compound 0.253 µM) of 0.704. It also gave a relative viability (A-427; first compound 0.8 µM) of 0.64, a relative viability (A-427; first compound 2.53 µM) of 0.799 and a relative viability (ABC-1; first compound 0.08 µM) of 1. The relative viability (ABC-1; first compound 0.253 µM) was 0.527, the relative viability (ABC-1; first compound 0.8 µM) was 0.8 and the relative viability (ABC-1; first compound 2.53 µM) was 0.819. It also gave a relative viability (BEN; first compound 0.08 µM) of 1.15, a relative viability (BEN; first compound 0.253 µM) of 1.09 and a relative viability (BEN; first compound 0.8 µM) of 1.09. For the same compound, the relative viability (BEN; first compound 2.53 µM) was 0.958, the relative viability (CAL-12T; first compound 0.08 µM) was 0.742 and the relative viability (CAL-12T; first compound 0.253 µM) was 0.67. The relative viability (CAL-12T; first compound 0.8 µM) was 0.768, the relative viability (CAL-12T; first compound 2.53 µM) was 0.664 and the relative viability (H3255; first compound 0.08 µM) was 0.552. It also gave a relative viability (H3255; first compound 0.253 µM) of 0.529, a relative viability (H3255; first compound 0.8 µM) of 0.588 and a relative viability (H3255; first compound 2.53 µM) of 0.56. For the same compound, the relative viability (LC-2-ad; first compound 0.08 µM) was 0.68, the relative viability (LC-2-ad; first compound 0.253 µM) was 0.682 and the relative viability (LC-2-ad; first compound 0.8 µM) was 0.721. It also gave a relative viability (LC-2-ad; first compound 2.53 µM) of 0.71, a relative viability (LCLC-97TM1; first compound 0.08 µM) of 0.383 and a relative viability (LCLC-97TM1; first compound 0.253 µM) of 0.393. It also gave a relative viability (LCLC-97TM1; first compound 0.8 µM) of 0.433, a relative viability (LCLC-97TM1; first compound 2.53 µM) of 0.385 and a relative viability (NCI-H1650; first compound 0.08 µM) of 0.803. For the same compound, the relative viability (NCI-H1650; first compound 0.8 µM) was 0.757, the relative viability (NCI-H1650; first compound 2.53 µM) was 0.682 and the relative viability (NCI-H1651; first compound 0.08 µM) was 0.172. The relative viability (NCI-H1651; first compound 0.253 µM) was 0.191, the relative viability (NCI-H1651; first compound 0.8 µM) was 0.19 and the relative viability (NCI-H1651; first compound 2.53 µM) was 0.184. For the same compound, the relative viability (NCI-H1915; first compound 0.08 µM) was 0.31, the relative viability (NCI-H1915; first compound 0.253 µM) was 0.277 and the relative viability (NCI-H1915; first compound 0.8 µM) was 0.254. For the same compound, the relative viability (NCI-H1915; first compound 2.53 µM) was 0.24, the relative viability (NCI-H1944; first compound 0.08 µM) was 0.417 and the relative viability (NCI-H1944; first compound 0.253 µM) was 0.369. The relative viability (NCI-H1944; first compound 0.8 µM) was 0.392, the relative viability (NCI-H1944; first compound 2.53 µM) was 0.406 and the relative viability (NCI-H2023; first compound 0.08 µM) was 0.438. The relative viability (NCI-H2023; first compound 0.253 µM) was 0.415, the relative viability (NCI-H2023; first compound 0.8 µM) was 0.516 and the relative viability (NCI-H2023; first compound 2.53 µM) was 0.469. For the same compound, the relative viability (NCI-H2087; first compound 0.08 µM) was 0.658, the relative viability (NCI-H2087; first compound 0.253 µM) was 0.668 and the relative viability (NCI-H2087; first compound 0.8 µM) was 0.63. For the same compound, the relative viability (NCI-H2087; first compound 2.53 µM) was 0.48, the relative viability (NCI-H441; first compound 0.08 µM) was 0.549 and the relative viability (NCI-H441; first compound 0.253 µM) was 0.517. It also gave a relative viability (NCI-H441; first compound 0.8 µM) of 0.638, a relative viability (NCI-H441; first compound 2.53 µM) of 0.576 and a relative viability (NCI-H460; first compound 0.08 µM) of 0.42. For the same compound, the relative viability (NCI-H460; first compound 0.253 µM) was 0.346, the relative viability (NCI-H460; first compound 0.8 µM) was 0.322 and the relative viability (NCI-H460; first compound 2.53 µM) was 0.481. For the same compound, the relative viability (NCI-H520; first compound 0.08 µM) was 0.282, the relative viability (NCI-H520; first compound 0.253 µM) was 0.296 and the relative viability (NCI-H520; first compound 0.8 µM) was 0.252. The relative viability (NCI-H520; first compound 2.53 µM) was 0.352, the relative viability (NCI-H596; first compound 0.08 µM) was 0.661 and the relative viability (NCI-H596; first compound 0.253 µM) was 0.595. The relative viability (NCI-H596; first compound 0.8 µM) was 0.831, the relative viability (NCI-H596; first compound 2.53 µM) was 0.774 and the relative viability (NCI-H650; first compound 0.08 µM) was 0.413. It also gave a relative viability (NCI-H650; first compound 0.253 µM) of 0.395, a relative viability (NCI-H650; first compound 0.8 µM) of 0.52 and a relative viability (NCI-H650; first compound 2.53 µM) of 0.443. The relative viability (NCI-H661; first compound 0.08 µM) was 0.776, the relative viability (NCI-H661; first compound 0.253 µM) was 0.677 and the relative viability (NCI-H661; first compound 0.8 µM) was 0.791. It also gave a relative viability (NCI-H661; first compound 2.53 µM) of 0.751, a relative viability (NCI-H727; first compound 0.08 µM) of 0.712 and a relative viability (NCI-H727; first compound 0.253 µM) of 0.586. For the same compound, the relative viability (NCI-H727; first compound 0.8 µM) was 0.661, the relative viability (NCI-H727; first compound 2.53 µM) was 0.868 and the relative viability (PC-3 [JPC-3]; first compound 0.08 µM) was 1.1. The relative viability (PC-3 [JPC-3]; first compound 0.253 µM) was 1.09, the relative viability (PC-3 [JPC-3]; first compound 0.8 µM) was 1.21 and the relative viability (PC-3 [JPC-3]; first compound 2.53 µM) was 1.14.
